Measurements as given in ChEMBL document CHEMBL4831523, “Taichunins E-T, Isopimarane Diterpenes and a 20-nor-Isopimarane, from Aspergillus taichungensis (IBT 19404): Structures and Inhibitory Effects on RANKL-Induced Formation of Multinuclear Osteoclasts” (J Nat Prod, 2021).
Calls of active or inactive are those of the source. No cut-off for these calls is given here.

Assays:
[1] = system: RAW264.7; assay: Cytotoxicity against RANKL-treated mouse RAW264.7 cells assessed as effect on cell viability at 50 uM measured after 4 days by MTT assay; assay type: cell-based; conditions: raw264.7, 96 h, time 4 day
[2] = system: RAW264.7; assay: Inhibition of RANKL-induced osteoclastogenesis in mouse RAW264.7 cells assessed as reduction in TRAP activity at 5 uM measured after 4 days by pNPP based assay; assay type: functional, cell-based; conditions: time 4.0 day
[3] = system: RAW264.7; assay: Inhibition of RANKL-induced osteoclastogenesis in mouse RAW264.7 cells assessed as reduction in number of TRAP-positive multinuclear cells at 5 uM measured after 4 days by TRAP staining based assay; assay type: functional, cell-based; conditions: time 4.0 day
[4] = system: RAW264.7; assay: Inhibition of RANKL-induced osteoclastogenesis in mouse RAW264.7 cells assessed as reduction in TRAP activity measured after 4 days by pNPP based assay; assay type: functional, cell-based; conditions: dose 0.2-1 µM, time 4.0 day
[5] = system: RAW264.7; assay: Inhibition of RANKL-induced osteoclastogenesis in mouse RAW264.7 cells assessed as reduction in number of TRAP-positive multinuclear cells measured after 4 days by TRAP staining based assay; assay type: functional, cell-based; conditions: for inhibition: time 4.0 day
[6] = system: RAW264.7; assay: Inhibition of RANKL-induced osteoclastogenesis in mouse RAW264.7 cells assessed as reduction in number of TRAP-positive multinuclear cells at 0.2 uM measured after 4 days by TRAP staining based assay; assay type: functional; conditions: RAW264.7, 96 h, time 4 day
[7] = system: RAW264.7; assay: Inhibition of RANKL-induced osteoclastogenesis in mouse RAW264.7 cells assessed as reduction in Nfatc1 mRNA expression at 30 uM measured after 24 hrs by qRT-PCR method; assay type: functional

SMILES: C=C[C@]1(C)C=C2C(=O)C[C@H]3C(C)(C)CCC[C@]3(C(=O)O)[C@@]2(O)CC1 [SPHAEROPSIDIN C]
- Activity [1]: Non-Toxic

SMILES: C=C[C@]1(C)C=C2[C@@H](O)C[C@H]3C(C)(C)CCC[C@]3(C(=O)O)[C@H]2CC1
- Activity [1]: Non-Toxic

SMILES: C=C[C@]1(C)C=C2[C@H](O)C[C@H]3C(C)(C)CC[C@@H](O)[C@]3(C)[C@H]2CC1
- Activity [1]: Non-Toxic

SMILES: C=C[C@@]1(C)CC[C@H]2C(=C[C@H](O)[C@H]3C(C)(C)CC[C@@H](O)[C@]23C)[C@H]1O
- Activity [1]: Non-Toxic

SMILES: C=C[C@@]1(C)CC[C@]2(O)[C@@]34CCCC(C)(C)C3=C(O)C(=O)[C@@]2(OC4=O)[C@H]1O
- Activity [1]: Non-Toxic

SMILES: C=C[C@]1(C)C=C2[C@H]3OC(OC)[C@@]4([C@H](O)CCC(C)(C)[C@@H]4[C@H]3O)[C@H]2CC1 (stereo not given in full)
- Activity [1]: Non-Toxic

SMILES: C=C[C@@]1(C)CC(=O)C2=C([C@H]1O)[C@@]1(O)OC[C@@]23CCCC(C)(C)[C@@H]3[C@H]1O
- Activity [1]: Non-Toxic

SMILES: C=C[C@]1(C)C=C2[C@@H](O)C(=O)[C@H]3C(C)(C)CCC[C@]3(C(=O)O[C@@H]3O[C@H](CO)[C@@H](O)[C@H](O)[C@H]3O)[C@H]2CC1
- Activity [1]: Non-Toxic
- inhibition [2]: Active
- inhibition [3]: Active
- inhibition [4]: Dose-Dependent Effect
- inhibition [5]: Dose-Dependent Effect

SMILES: C=C[C@]1(C)C=C2[C@H]([C@@H](O)C1)[C@@]1(C(=O)O)CCCC(C)(C)[C@@H]1C[C@@H]2O
- Activity [1]: Non-Toxic
- inhibition [2]: Active
- inhibition [3]: Active
- inhibition at 0.2 µM [6]: 92%
- inhibition [4]: Dose-Dependent Effect
- inhibition [5]: Dose-Dependent Effect

SMILES: C=C[C@]1(C)C=C2C(=O)[C@@H](O)[C@H]3C(C)(C)CCC[C@]3(C(=O)O[C@@H]3O[C@H](CO)[C@@H](O)[C@H](O)[C@H]3O)[C@H]2CC1
- Activity [1]: Non-Toxic

SMILES: C=C[C@]1(C)C=C2[C@H]3OC(=O)[C@@]4(CCCC(C)(C)[C@@H]4[C@H]3O)[C@@]2(O)CC1
- Activity [1]: Non-Toxic

SMILES: C=C[C@]1(C)C=C2[C@@H](O)C[C@H]3C(C)(C)CCC[C@]3(C(=O)O)[C@@]2(O)[C@H](O)C1
- Activity [1]: Non-Toxic

SMILES: C=C[C@]1(C)C=C2C(=O)C(=O)[C@H]3C(C)(C)CCC[C@]3(C(=O)O)[C@@]2(O)CC1
- Activity [1]: Non-Toxic

SMILES: C=C[C@@]1(C)C[C@@H](O)[C@@H]2[C@@]34CCCC(C)(C)[C@@H]3[C@H](O)C(=O)[C@@]2(OC4=O)[C@H]1O
- Activity [1]: Non-Toxic

SMILES: C=C[C@@]1(C)C[C@@H](O)[C@H]2C(=C[C@H](O)[C@H]3C(C)(C)CCC[C@]23C)[C@H]1O
- Activity [1]: Non-Toxic

SMILES: C=C[C@@]1(C)CC[C@H]2[C@H]([C@H]1O)[C@@H](O)C[C@H]1C(C)(C)CCC[C@]21C(=O)O
- Activity [1]: Non-Toxic

SMILES: C=C[C@]1(C)C=C2[C@@H](O)[C@@]3(O)OC(=O)[C@@]4(CCCC(C)(C)[C@H]34)[C@@]2(O)CC1 [SPHAEROPSIDIN B]
- Activity [1]: Non-Toxic
- inhibition at 30 µM [7]: 63%
- IC50 ([5]; RAW264.7, 96 h): 10.6 µM

SMILES: C=C[C@]1(C)C=C2[C@H]3OC(=O)[C@@]4(CCCC(C)(C)[C@@H]4[C@H]3O)[C@H]2CC1
- Activity [1]: Non-Toxic
- inhibition [2]: Active
- inhibition [3]: Active
- inhibition [4]: Dose-Dependent Effect
- inhibition [5]: Dose-Dependent Effect

SMILES: C=C[C@@]1(C)CCc2c3c(c(O)c(OS(=O)(=O)O)c2[C@H]1O)C(C)(C)CCC3
- Activity [1]: Non-Toxic

SMILES: C=C[C@]1(C)C=C2C(=O)C[C@H]3C(C)(C)CC[C@@H](O)[C@]3(C(=O)O)[C@H]2CC1
- Activity [1]: Non-Toxic
